Source: ChEMBL document CHEMBL1136669, “Synthesis of aza and oxaglutamyl-p-nitroanilide derivatives and their kinetic studies with gamma-glutamyltranspeptidase” (Bioorg Med Chem Lett, 2003)
Activity calls are given as the source filed them. The calls are words filed in the database; no cut-off is given here.

What was measured:
[1] = Ratio of kinetic constant (Kcat/KM) acting as donor substrate for gamma-GGT (Glutamyltranspeptidase)-mediated transpeptidation was determined in rat kidney
[2] = Ratio of kinetic constant (Kcat/KM) acting as acceptor substrate for gamma-GGT (Glutamyltranspeptidase)-mediated transpeptidation was determined in rat kidney; parameters: unit not given here
[3] = biological target: Glutathione hydrolase 1 proenzyme (Rattus norvegicus) (UniProt P07314); test: Kinetic constant acting as donor substrate for gamma-GGT (Glutamyltranspeptidase)-mediated transpeptidation was determined in rat kidney (units are 10e3/min); format: tissue-based
Glutathione hydrolase 1 proenzyme (Rattus norvegicus), sequence (P07314 1-379 limits assumed): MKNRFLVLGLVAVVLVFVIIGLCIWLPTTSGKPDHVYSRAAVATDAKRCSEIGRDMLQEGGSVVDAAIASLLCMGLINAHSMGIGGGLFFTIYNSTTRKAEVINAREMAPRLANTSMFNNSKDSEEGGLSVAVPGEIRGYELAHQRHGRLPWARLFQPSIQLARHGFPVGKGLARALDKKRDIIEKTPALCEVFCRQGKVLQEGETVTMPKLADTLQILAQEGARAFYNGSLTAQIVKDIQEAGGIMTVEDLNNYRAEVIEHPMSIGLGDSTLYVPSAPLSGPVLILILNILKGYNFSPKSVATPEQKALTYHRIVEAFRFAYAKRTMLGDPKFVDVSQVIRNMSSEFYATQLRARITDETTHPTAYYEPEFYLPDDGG
Glutathione hydrolase 1 proenzyme (Rattus norvegicus), sequence (P07314 380-568 limits assumed): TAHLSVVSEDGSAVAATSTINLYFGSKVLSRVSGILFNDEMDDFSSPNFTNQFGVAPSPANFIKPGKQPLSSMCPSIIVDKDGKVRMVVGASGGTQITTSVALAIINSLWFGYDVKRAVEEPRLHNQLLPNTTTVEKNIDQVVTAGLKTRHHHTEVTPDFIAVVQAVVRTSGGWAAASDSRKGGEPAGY

[4] = biological target: Glutathione hydrolase 1 proenzyme (Rattus norvegicus) (UniProt P07314); test: Kinetic constant acting as acceptor substrate for gamma-GGT (Glutamyltranspeptidase)-mediated transpeptidation was determined in rat kidney (units are 10e3/min); format: tissue-based
[5] = biological target: Glutathione hydrolase 1 proenzyme (Rattus norvegicus) (UniProt P07314); test: Kinetic constant acting as donor substrate for gamma-GGT (Glutamyltranspeptidase)-mediated transpeptidation was determined in rat kidney (units are 10e3/min); Inactive at 2 mM with 33.8 mU of GGT; format: tissue-based
[6] = Ratio of kinetic constant (Kcat/KM) acting as donor substrate for gamma-GGT (Glutamyltranspeptidase)-mediated transpeptidation was determined in rat kidney; Inactive at 2 mM with 33.8 mU of GGT
[7] = Ratio of kinetic constant (Kcat/KM) acting as donor substrate for gamma-GGT (Glutamyltranspeptidase)-mediated transpeptidation was determined in rat kidney; Not applicable
[8] = biological target: Glutathione hydrolase 1 proenzyme (Rattus norvegicus) (UniProt P07314); test: Kinetic constant acting as donor substrate for gamma-GGT (Glutamyltranspeptidase)-mediated transpeptidation was determined in rat kidney (units are 10e3/min); Not applicable; format: tissue-based
[9] = biological target: Glutathione hydrolase 1 proenzyme (Rattus norvegicus) (UniProt P07314); test: Kinetic constant acting as donor substrate for gamma-GGT (Glutamyltranspeptidase)-mediated transpeptidation was determined (units are 10e3/min); Inactive at 2 mM with 33.8 mU of GGT in rat kidney; format: tissue-based
[10] = Ratio of kinetic constant (Kcat/KM) acting as donor substrate for gamma-GGT (Glutamyltranspeptidase)-mediated transpeptidation was determined in rat kidney; Inactive at 2 mM with 33.8 mU of GGT in rat kidney
[11] = system: COC(=O)[C@@H](N)CO; test: Kinetic constant acting as donor substrate for gamma-GGT (Glutamyltranspeptidase)-mediated transpeptidation was determined in rat kidney; Not applicable
[12] = system: N[C@@H](CNC(=O)Nc1ccc([N+](=O)[O-])cc1)C(=O)O; test: Kinetic constant acting as acceptor substrate for gamma-GGT (Glutamyltranspeptidase)-mediated transpeptidation was determined in rat kidney; Solubility- Insoluble for concentration greater than 15 mM
[13] = system: N[C@@H](CNC(=O)Nc1ccc([N+](=O)[O-])cc1)C(=O)O; test: (§1) Kinetic constant acting as donor substrate for gamma-GGT (Glutamyltranspeptidase)-mediated transpeptidation was determined; in rat kidney; Inactive at 2 mM with 33.8 mU of GGT
[14] = system: COC(=O)[C@@H](N)COC(=O)Nc1ccc([N+](=O)[O-])cc1; test: as §1
[15] = system: N[C@@H](CCC(=O)Nc1ccc([N+](=O)[O-])cc1)C(=O)O; test: (§2) Kinetic constant acting as donor substrate for GGT (gamma-Glutamyltranspeptidase)-mediated transpeptidation was determined in rat kidney; format: tissue-based
[16] = system: COC(=O)[C@@H](N)CCC(=O)Nc1ccc([N+](=O)[O-])cc1; test: as §2; format: tissue-based
[17] = system: N[C@@H](CCC(=O)Nc1ccc([N+](=O)[O-])cc1)C(=O)O; test: (§3) Kinetic constant acting as acceptor substrate for gamma-GGT (Glutamyltranspeptidase)-mediated transpeptidation was determined in rat kidney
[18] = system: COC(=O)[C@@H](N)CNC(=O)Nc1ccc([N+](=O)[O-])cc1; test: as §3
[19] = system: COC(=O)[C@@H](N)CCC(=O)Nc1ccc([N+](=O)[O-])cc1; test: as §3
[20] = system: COC(=O)[C@@H](N)COC(=O)Nc1ccc([N+](=O)[O-])cc1; test: as §3
[21] = system: COC(=O)[C@@H](N)CO; test: as §3
[22] = system: COC(=O)[C@@H](N)CNC(=O)Nc1ccc([N+](=O)[O-])cc1; test: Kinetic constant acting as donor substrate for gamma-GGT (Glutamyltranspeptidase)-mediated transpeptidation was determined; Inactive at 2 mM with 33.8 mU of GGT in rat kidney; format: tissue-based
[23] = Ratio of kinetic constant (Kcat/KM) acting as acceptor substrate for gamma-GGT (Glutamyltranspeptidase)-mediated transpeptidation was determined in rat kidney; Solubility- Insoluble for concentration greater than 15 mM
[24] = biological target: Glutathione hydrolase 1 proenzyme (Rattus norvegicus) (UniProt P07314); test: Compound was tested for the mixed non-competitive inhibition of rat kidney gamma-glutamyltranspeptidase (gamma-GGT)
[25] = biological target: Glutathione hydrolase 1 proenzyme (Rattus norvegicus) (UniProt P07314); test: Kinetic constant acting as acceptor substrate for gamma-GGT (Glutamyltranspeptidase)-mediated transpeptidation was determined in rat kidney (units are 10e3/min); Solubility- Insoluble for concentration greater than 15 mM; format: tissue-based

Glutathione hydrolase 1 proenzyme (Rattus norvegicus), P07314, sequence (P07314 whole entry): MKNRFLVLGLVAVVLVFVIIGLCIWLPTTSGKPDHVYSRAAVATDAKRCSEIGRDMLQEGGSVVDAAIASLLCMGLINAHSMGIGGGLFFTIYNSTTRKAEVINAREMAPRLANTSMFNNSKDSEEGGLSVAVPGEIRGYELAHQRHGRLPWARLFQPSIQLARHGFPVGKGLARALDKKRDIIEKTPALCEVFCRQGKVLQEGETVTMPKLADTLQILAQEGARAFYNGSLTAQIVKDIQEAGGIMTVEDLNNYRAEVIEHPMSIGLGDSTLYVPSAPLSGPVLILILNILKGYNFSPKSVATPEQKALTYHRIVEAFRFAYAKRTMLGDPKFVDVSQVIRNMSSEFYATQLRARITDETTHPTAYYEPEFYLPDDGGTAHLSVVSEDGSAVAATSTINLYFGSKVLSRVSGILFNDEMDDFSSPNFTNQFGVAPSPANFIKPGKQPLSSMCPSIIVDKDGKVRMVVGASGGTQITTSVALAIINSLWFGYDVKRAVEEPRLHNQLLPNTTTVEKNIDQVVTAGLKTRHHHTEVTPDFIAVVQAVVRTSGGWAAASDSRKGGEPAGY

Question: What does the source list for `COC(=O)[C@@H](N)CCC(=O)Nc1ccc([N+](=O)[O-])cc1`?
Answer: Ratio [1]: 270000; Ratio [2]: 580000; k cat [3]: 25 s⁻¹; k cat [4]: 53.3 s⁻¹

Question: With `COC(=O)[C@@H](N)COC(=O)Nc1ccc([N+](=O)[O-])cc1` as the compound, how does the Ratio [2] read?
Answer: Its Ratio is 3e+06.

Question: What about the k cat [5] of the same compound?
Answer: The k cat was “inactive”.

Question: And the Ratio [6]?
Answer: Its Ratio is “inactive”.

Question: And the k cat [4]?
Answer: Its k cat is 80 s⁻¹.

Question: Which results are given for `COC(=O)[C@@H](N)CO`?
Answer: Ratio [2]: 38000; Ratio [7]: inactive; k cat [8]: inactive; k cat [4]: 21.7 s⁻¹

Question: What does the source list for `COC(=O)[C@@H](N)CNC(=O)Nc1ccc([N+](=O)[O-])cc1`?
Answer: Ratio [2]: 1.4e+06; k cat [9]: inactive; Ratio [10]: inactive; k cat [4]: 102 s⁻¹

Question: Which Ratio [1] does the source give for `N[C@@H](CCC(=O)Nc1ccc([N+](=O)[O-])cc1)C(=O)O` here?
Answer: The Ratio was 1.5e+08.

Question: And the Ratio [2]?
Answer: Its Ratio is 2.5e+06.

Question: And the k cat [3]?
Answer: The k cat was 1.15 s⁻¹.

Question: And the k cat [4]?
Answer: Its k cat is 267 s⁻¹.

Question: Which Km [11] does the source give for “Glutathione hydrolase 1 proenzyme (Rattus norvegicus), P07314” here?
Answer: The Km was “Not Active”.

Question: What about the Km [12] of the same compound?
Answer: Its Km is “Insoluble”.

Question: What about the Km [13] of the same compound?
Answer: The Km was “Not Active”.

Question: And the Km [14]?
Answer: The Km was “Not Active”.

Question: What about the Km [15] of the same compound?
Answer: Its Km is 0.47 mM.

Question: What about the Km [16] of the same compound?
Answer: Its Km is 5.7 mM.

Question: And the Km [17]?
Answer: The Km was 6.3 mM.

Question: And the Km [18]?
Answer: The Km was 4 mM.

Question: And the Km [19]?
Answer: Its Km is 6 mM.

Question: What about the Km [20] of the same compound?
Answer: The Km was 1.5 mM.

Question: And the Km [21]?
Answer: Its Km is 34 mM.

Question: What about the Km [22] of the same compound?
Answer: Its Km is “Not Active”.

Question: For `N[C@@H](CNC(=O)Nc1ccc([N+](=O)[O-])cc1)C(=O)O`, which Ratio [23] is on record?
Answer: Its Ratio is “Insoluble”.

Question: And the k cat [5]?
Answer: Its k cat is “inactive”.

Question: And the Ki' uncomp [24]?
Answer: Its Ki' uncomp is 1.7 mM.

Question: And the k cat [25]?
Answer: Its k cat is “Insoluble”.

Question: And the Ratio [6]?
Answer: The Ratio was “inactive”.
